By IC50 is commonly meant the concentration at which inhibition is half-maximal.

SMILES strings stand for the structures.

From patent US12091405B2, “Substituted pyrazole compounds as indoleamine 2,3-dioxygenase inhibitors” (Merck Sharp & Dohme LLC, priority 2018, dated 2024) come the findings set out here.

This experiment deals with IDO1 (Homo sapiens, UniProt P14902). As to the kind of experiment: IDO1 Cellular Assay in HeLa Cells Stimulated with IFNγ. In kind it is cell-based. The settings on record: IFNγ 100 ng/mL, 300 uM L-tryptophan, about 48 hours, fluorescence readout, read-out: IDO1 HELA Cell Assay, IC50.
Sequence of IDO1 (P14902 whole entry): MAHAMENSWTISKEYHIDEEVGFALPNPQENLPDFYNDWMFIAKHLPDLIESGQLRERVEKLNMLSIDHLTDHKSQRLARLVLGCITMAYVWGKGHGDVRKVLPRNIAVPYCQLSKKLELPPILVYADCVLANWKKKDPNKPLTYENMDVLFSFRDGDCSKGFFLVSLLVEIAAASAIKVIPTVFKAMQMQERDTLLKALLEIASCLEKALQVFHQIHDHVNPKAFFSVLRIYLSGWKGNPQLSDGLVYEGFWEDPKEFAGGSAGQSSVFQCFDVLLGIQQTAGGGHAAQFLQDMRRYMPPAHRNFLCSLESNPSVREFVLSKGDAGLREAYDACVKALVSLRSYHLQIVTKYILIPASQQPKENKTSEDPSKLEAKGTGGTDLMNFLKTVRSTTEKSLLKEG
Regarding `COc1c(F)cc(F)cc1C1CCN(C(=O)Cn2nc(C(=O)N3C[C@@H](C)O[C@@H](C)C3)c3c2CCC3)CC1` [Example 110, 1-[4-(3,5-difluoro-2-methoxyphenyl)piperidin-1-yl]-2-{3-[(2R,6S)-2,6-dimethylmorpholine-4-carbonyl]-5,6-dihydrocyclopenta[c]pyrazol-1(4H)-yl}ethan-1-one], the IC50 turned out to be 39.3 nM. For `Cc1c(C2CCN(C(=O)Cn3nc(C(=O)N4CCN(C(=O)CO)CC4)c4c3C[C@H]3C[C@@H]43)CC2)cccc1C(F)(F)F` [Example 3, 2-hydroxy-1-(4-((3bR,4aR)-1-(2-(4-(2-methyl-3-(trifluoromethyl)phenyl)piperidin-1-yl)-2-oxoethyl)-3b,4,4a,5-tetrahydro-1H-cyclopropa[3,4]cyclopenta[1,2-c]pyrazole-3-carbonyl)piperazin-1-yl)ethanone] the value was 1.3 nM. For `Cc1cccc(C2CCN(C(=O)Cn3nc(C(=O)N4CC[C@@H](O)C4)c4c3CCC4)CC2)c1C` [Example 51, (R)-1-(4-(2,3-dimethylphenyl)piperidin-1-yl)-2-(3-(3-hydroxypyrrolidine-1-carbonyl)-5,6-dihydrocyclopenta[c]pyrazol-1(4H)-yl)ethan-1-one] the value was 45.5 nM.

Take `Cc1cc(Cl)cc(C2CCN(C(=O)Cn3nc(C(=O)N4C[C@@H](C)O[C@@H](C)C4)c4c3CCC4)CC2)c1` [Example 148, 1-[4-(3-chloro-5-methylphenyl)piperidin-1-yl]-2-{3-[(2R,6S)-2,6-dimethylmorpholine-4-carbonyl]-5,6-dihydrocyclopenta[c]pyrazol-1(4H)-yl}ethan-1-one]: the IC50 turned out to be 117 nM. For `Cc1cccc(C2CCN(C(=O)Cn3nc(C(=O)N4CC[C@@H](O)[C@H](F)C4)c4c3C[C@H]3C[C@@H]43)CC2)c1C` [Example 24, 1-[4-(2,3-dimethylphenyl)piperidin-1-yl]-2-{(3bR,4aR)-3-[(3R,4R)-3-fluoro-4-hydroxypiperidine-1-carbonyl]-3b,4,4a,5-tetrahydro-1H-cyclopropa[3,4]cyclopenta[1,2-c]pyrazol-1-yl}ethan-1-one] the value was 1.2 nM; for `Cc1c(C2CCN(C(=O)Cn3nc(C(=O)N4CCC(O)(CF)CC4)c4c3C[C@H]3C[C@@H]43)CC2)cccc1C(F)(F)F` [Example 1, 2-((3bR,4aR)-3-(4-(fluoromethyl)-4-hydroxypiperidine-1-carbonyl)-3b,4,4a,5-tetrahydro-1H-cyclopropa[3,4]cyclopenta[1,2-c]pyrazol-1-yl)-1-(4-(2-methyl-3-(trifluoromethyl)phenyl)piperidin-1-yl)ethanone], 0.8 nM; for `Cc1ccc(C2CCN(C(=O)Cn3nc(C(=O)N4C[C@@H](C)O[C@@H](C)C4)c4c3CCC4)CC2)cc1F` [Example 91, 2-{3-[(2R,6S)-2,6-dimethylmorpholine-4-carbonyl]-5,6-dihydrocyclopenta[c]pyrazol-1(4H)-yl}-1-[4-(3-fluoro-4-methylphenyl)piperidin-1-yl]ethan-1-one], 11.9 nM. As to `Cc1ccc(F)cc1C1CCN(C(=O)Cn2nc(C(=O)N3C[C@@H](C)O[C@@H](C)C3)c3c2CCC3)CC1` [Example 98, 2-{3-[(2R,6S)-2,6-dimethylmorpholine-4-carbonyl]-5,6-dihydrocyclopenta[c]pyrazol-1(4H)-yl}-1-[4-(5-fluoro-2-methylphenyl)piperidin-1-yl]ethan-1-one], the IC50 was found to be 27.1 nM. For `C[C@@H]1CN(C(=O)c2nn(CC(=O)N3CCC(c4ccc5ccccc5c4)CC3)c3c2CCC3)C[C@H](C)O1` [Example 76, 2-{3-[(2R,6S)-2,6-dimethylmorpholine-4-carbonyl]-5,6-dihydrocyclopenta[c]pyrazol-1(4H)-yl}-1-[4-(naphthalen-2-yl)piperidin-1-yl]ethan-1-one] the value was 199 nM.

Consider `Cc1cccc(C2CCN(C(=O)Cn3nc(C(=O)N4CCC(OCCO)CC4)c4c3CCCC4)CC2)c1C` [Example 38, 1-(4-(2,3-dimethylphenyl)piperidin-1-yl)-2-(3-(4-(2-hydroxyethoxy)piperidine-1-carbonyl)-4,5,6,7-tetrahydro-1H-indazol-1-yl)ethanone], for which the IC50 amounted to 1.9 nM.

In the case of `Cc1ccc(C2CCN(C(=O)Cn3nc(C(=O)N4C[C@@H](C)O[C@@H](C)C4)c4c3CCC4)CC2)cc1C(F)(F)F` [Example 120, 2-{3-[(2R,6S)-2,6-dimethylmorpholine-4-carbonyl]-5,6-dihydrocyclopenta[c]pyrazol-1(4H)-yl}-1-{4-[4-methyl-3-(trifluoromethyl)phenyl]piperidin-1-yl}ethan-1-one], the IC50 amounted to 52.5 nM.

Turning to `Cc1cccc(C2CCN(C(=O)Cn3nc(C(=O)N4CC[C@H](O)C4)c4c3CCC4)CC2)c1C` [Example 48, (S)-1-(4-(2,3-dimethylphenyl)piperidin-1-yl)-2-(3-(3-hydroxypyrrolidine-1-carbonyl)-5,6-dihydrocyclopenta[c]pyrazol-1(4H)-yl)ethan-1-one], the IC50 was 27 nM. For `COc1ccccc1C1CCN(C(=O)Cn2nc(C(=O)N3C[C@@H](C)O[C@@H](C)C3)c3c2CCC3)CC1` [Example 75, 2-{3-[(2R,6S)-2,6-dimethylmorpholine-4-carbonyl]-5,6-dihydrocyclopenta[c]pyrazol-1(4H)-yl}-1-[4-(2-methoxyphenyl)piperidin-1-yl]ethan-1-one] the value was 195 nM. Regarding `C[C@@H]1CN(C(=O)c2nn(CC(=O)N3CCC(c4ccc(F)c(F)c4F)CC3)c3c2CCC3)C[C@H](C)O1` [Example 128, 2-{3-[(2R,6S)-2,6-dimethylmorpholine-4-carbonyl]-5,6-dihydrocyclopenta[c]pyrazol-1(4H)-yl}-1-[4-(2,3,4-trifluorophenyl)piperidin-1-yl]ethan-1-one], the IC50 turned out to be 64.1 nM. For `Cc1c(C2CCN(C(=O)Cn3nc(C(=O)N4CCN(CC(N)=O)CC4)c4c3C[C@H]3C[C@@H]43)CC2)cccc1C(F)(F)F` [Example 6, 2-(4-((3bR,4aR)-1-(2-(4-(2-methyl-3-(trifluoromethyl)phenyl)piperidin-1-yl)-2-oxoethyl)-3b,4,4a,5-tetrahydro-1H-cyclopropa[3,4]cyclopenta[1,2-c]pyrazole-3-carbonyl)piperazin-1-yl)acetamide] the value was 2.5 nM; for `C[C@@H]1CN(C(=O)c2nn(CC(=O)N3CCC(c4cccc5c4OC(F)(F)O5)CC3)c3c2CCC3)C[C@H](C)O1` [Example 153, 1-[4-(2,2-difluoro-2H-1,3-benzodioxol-4-yl)piperidin-1-yl]-2-{3-[(2R,6S)-2,6-dimethylmorpholine-4-carbonyl]-5,6-dihydrocyclopenta[c]pyrazol-1(4H)-yl}ethan-1-one], 138 nM; for `C[C@@H]1CN(C(=O)c2nn(CC(=O)N3CCC(c4ccccc4C4CC4)CC3)c3c2CCC3)C[C@H](C)O1` [Example 113, 1-[4-(2-cyclopropylphenyl)piperidin-1-yl]-2-{3-[(2R,6S)-2,6-dimethylmorpholine-4-carbonyl]-5,6-dihydrocyclopenta[c]pyrazol-1(4H)-yl}ethan-1-one], 42.6 nM. For `Cc1cccc(C2(F)CCN(C(=O)Cn3nc(C(=O)N4CCC(N)CC4)c4c3C[C@H]3C[C@@H]43)CC2)c1C` [Example 13, 2-((3bR,4aR)-3-(4-aminopiperidine-1-carbonyl)-3b,4,4a,5-tetrahydro-1H-cyclopropa[3,4]cyclopenta[1,2-c]pyrazol-1-yl)-1-(4-(2,3-dimethylphenyl)-4-fluoropiperidin-1-yl)ethanone] the value was 90.4 nM; for `CC(=O)NC1CCN(C(=O)c2nn(CC(=O)N3CCC(F)(c4cccc(C)c4C)CC3)c3c2[C@@H]2C[C@@H]2C3)CC1` [Example 12, N-(1-((3bR,4aR)-1-(2-(4-(2,3-dimethylphenyl)-4-fluoropiperidin-1-yl)-2-oxoethyl)-3b,4,4a,5-tetrahydro-1H-cyclopropa[3,4]cyclopenta[1,2-c]pyrazole-3-carbonyl)piperidin-4-yl)acetamide], 2.1 nM; for `C[C@@H]1CN(C(=O)c2nn(CC(=O)N3CC[C@@H](c4ccccc4)[C@@H](C)C3)c3c2CCC3)C[C@H](C)O1` [Example 79, 2-{3-[(2R,6S)-2,6-dimethylmorpholine-4-carbonyl]-5,6-dihydrocyclopenta[c]pyrazol-1(4H)-yl}-1-[(3R,4R)-3-methyl-4-phenylpiperidin-1-yl]ethan-1-one], 354 nM. For `C[C@@H]1CN(C(=O)c2nn(CC(=O)N3CCC(c4cc(F)cc(C(F)(F)F)c4)CC3)c3c2CCC3)C[C@H](C)O1` [Example 141, 2-{3-[(2R,6S)-2,6-dimethylmorpholine-4-carbonyl]-5,6-dihydrocyclopenta[c]pyrazol-1(4H)-yl}-1-{4-[3-fluoro-5-(trifluoromethyl)phenyl]piperidin-1-yl}ethan-1-one] the value was 97.4 nM; for `C[C@@H]1CN(C(=O)c2nn(CC(=O)N3CCC(C)(c4ccccc4)CC3)c3c2CCC3)C[C@H](C)O1` [Example 66, 2-{3-[(2R,6S)-2,6-dimethylmorpholine-4-carbonyl]-5,6-dihydrocyclopenta[c]pyrazol-1(4H)-yl}-1-(4-methyl-4-phenylpiperidin-1-yl)ethan-1-one], 43.5 nM; for `C[C@@H]1CN(C(=O)c2nn(CC(=O)N3CCC(c4ccccc4OC(F)(F)F)CC3)c3c2CCC3)C[C@H](C)O1` [Example 163, 2-{3-[(2R,6S)-2,6-dimethylmorpholine-4-carbonyl]-5,6-dihydrocyclopenta[c]pyrazol-1(4H)-yl}-1-{4-[2-(trifluoromethoxy)phenyl]piperidin-1-yl}ethan-1-one], 177 nM. Regarding `COc1ccc(F)c(C2CCN(C(=O)Cn3nc(C(=O)N4C[C@@H](C)O[C@@H](C)C4)c4c3CCC4)CC2)c1` [Example 156, 2-{3-[(2R,6S)-2,6-dimethylmorpholine-4-carbonyl]-5,6-dihydrocyclopenta[c]pyrazol-1(4H)-yl}-1-[4-(2-fluoro-5-methoxyphenyl)piperidin-1-yl]ethan-1-one], the IC50 amounted to 149 nM. Consider `C[C@@H]1CN(C(=O)c2nn(CC(=O)N3CCC(c4cc(F)cc(F)c4)CC3)c3c2CCC3)C[C@H](C)O1` [Example 67, 1-[4-(3,5-difluorophenyl)piperidin-1-yl]-2-{3-[(2R,6S)-2,6-dimethylmorpholine-4-carbonyl]-5,6-dihydrocyclopenta[c]pyrazol-1(4H)-yl}ethan-1-one], for which the IC50 was 52.4 nM.
